Test results: US20210235699A1, “Adjuvant Compositions Comprising a Tetramethylguanidine and a 4-Isothiazolin-3-One” (Lonza, LLC, priority 2018, published 2021)
Marks after values point to notes of the source that are not given here.

Key:
[1] = tested on: fungal test inoculum: Aspergillus niger, Penicillium funiculosum, Candida albicans; experiment: Fungal challenge test (ASTM D2574-97, modified) in standard water based interior paint; assay type: cell-based; parameters: key to Streak plate rank, 2nd inoculation 72 h / Streak plate rank, 1st inoculation 72 h / Streak plate rank, 1st inoculation 24 h / Streak plate rank, 2nd inoculation 24 h / Streak plate rank, 3rd inoculation 24 h: 0 = no growth; 1 = 1-5 Colony Forming Unit (cfu); 2 = 6-15 cfu; 3 = 16-30 cfu; 4 = 31-45 cfu; 5 = greater than 45 cfu; 5c = Confluent Growth; details: for Dilution plate count, 3rd inoculation 72 h / Streak plate rank, 3rd inoculation 24 h: inoculum 0.50%; for Streak plate rank, 2nd inoculation 72 h: inoculum 1%
Experimental: (§1) The following bacterial and fungal challenge tests were performed to ascertain whether low concentrations of 4-isothiazolin-3-one biocidal active compounds, pyrithione, coumarin or guanidine adjuvant are sufficient to prevent microbial contamination of final products when deliberately inoculated with spoilage microbes.
(§2) The tests were performed according to ASTM standard D2574-97 (Standard Test Method for Resistance of Emulsion Paints in the Container to Attack by Microorganisms, ASTM International, West Conshohocken, Pa.), with higher inoculation volumes and frequency. A standard water based interior paint was used as the test substrate. Sample sizes of 20 g test substrate were used and the test samples were prepared in a sterile 30 mL square Nalgene bottle.
Fungal lawns were grown on Potato Dextrose Agar (PDA) or Sabouraud Dextrose Agar (SAB). Individual fungal spore suspensions were harvested by adding 10 mL of sterile 0.05% Triton X to fungal lawns. The lawns were then gently agitated by rubbing a sterile swab on the lawn, being careful not to puncture the agar. The liquid was then aseptically transferred to a sterile bottle containing sterile glass beads. The top of the bottle was closed and the bottle shaken vigorously to break up any chunks in the suspension. The shaken spore suspension was decanted through sterile fibers into another sterile bottle. The decanted spore suspension was counted using a hemocytometer. Once the spore counts were determined, each suspension was diluted in order to obtain 10^6 spore/mL. Each diluted fungal suspension was poured into a sterile container.
(§3) The following microorganisms were used for inoculation of the tested samples:
For the bacterial challenge testing, each sample was inoculated with a combined bacterial test inoculum volume equivalent to 10% of the total initial sample volume for the initial inoculation, 5% of the total initial sample volume for the second inoculation and 2.5% of the total initial sample volume for the third inoculation. […] Samples were inoculated every 96 h.
(§4) Concentrations of biocidal active compounds and adjuvants refer to the final concentration in the test samples prior to the first inoculation.
(§5) The efficacy of the added agent in each sample was monitored by means of a streak plate test after 24 hours (all inoculations) and 72 hours of inoculation (first and second inoculation). At 72 hours of the third inoculation performed, a dilution plate count was performed in order to obtain a quantitative measurement of contamination (cfu/mL). A count of less than 10 colony forming units per mL ([…]) is considered to show no measurable contamination. For the streak plate tests, bacterial samples were streaked on Tryptic Soy Agar (TSA) and incubated for 48 hours at 30° C. before reading. Fungal samples were streaked on Potato Dextrose Agar (PDA) and incubated for 5 days at 25° C. before reading.
(§6) The streak plates were ranked from 0-5c according to the degree of microbial growth:
(§7) The challenge tests were performed as described above.

[2] = tested on: combined bacterial test inoculum: Acinetobacter calcoaceticus, Escherichia coli, Pseudomonas aeruginosa, Enterobacter cloacae; experiment: Bacterial challenge test (ASTM D2574-97, modified) in standard water based interior paint; assay type: cell-based; parameters: key to Streak plate rank, 1st inoculation 24 h / Streak plate rank, 1st inoculation 72 h / Streak plate rank, 2nd inoculation 72 h / Streak plate rank, 3rd inoculation 24 h: 0 = no growth; 1 = 1-5 Colony Forming Unit (cfu); 2 = 6-15 cfu; 3 = 16-30 cfu; 4 = 31-45 cfu; 5 = greater than 45 cfu; 5c = Confluent Growth; details: for Dilution plate count, 3rd inoculation 72 h / Streak plate rank, 3rd inoculation 24 h: inoculum 2.50%; for Streak plate rank, 2nd inoculation 72 h: inoculum 5%; for Streak plate rank, 1st inoculation 24 h / Streak plate rank, 1st inoculation 72 h: inoculum 10%
Experimental: as §1, §2
The bacteria were grown on pH 5, 7, or 9 Trypticase Soy Agar (TSA) lawns. The bacteria were grown individually on TSA and harvested by using sterile buffered water. The bacterial lawns were washed off with 30 mL of sterile water and an equal volume of each individual cell suspension was withdrawn from each serum bottle to make a combined cell suspension. Combined bacterial suspension were about 10^7 cfu/mL, which provides about 10^6 cfu/mL in the sample.
as §3
For the bacterial challenge testing, each sample was inoculated with a combined bacterial test inoculum volume equivalent to 10% of the total initial sample volume for the initial inoculation, 5% of the total initial sample volume for the second inoculation and 2.5% of the total initial sample volume for the third inoculation. Inoculum volumes for the fungal challenge tests were 2%, 1% and 0.5% of the total initial sample volume, respectively. Samples were inoculated every 96 h.
as §4, §5, §6, §7

## CCCCn1sc2ccccc2c1=O [BBIT, N-(n-butyl)-1,2-benzisothiazolin-3-one]
[1]; 25 ppm
  Dilution plate count, 3rd inoculation 72 h: 1.0 × 10^1 cfu/mL
  Streak plate rank, 3rd inoculation 24 h: 2 (2 = 6-15 cfu)
  Streak plate rank, 2nd inoculation 72 h: 0
[1]; 25 ppm, inoculum added was 5%
  Streak plate rank, 1st inoculation 24 h: 4* (4 = 31-45 cfu)
  Streak plate rank, 1st inoculation 72 h: 1* (1 = 1-5 Colony Forming Unit (cfu))
[1]; 50 ppm
  Dilution plate count, 3rd inoculation 72 h: <10 cfu/mL
  Streak plate rank, 3rd inoculation 24 h: 1 (1 = 1-5 Colony Forming Unit (cfu))
  Streak plate rank, 2nd inoculation 72 h: 0
[1]; 50 ppm, inoculum added was 5%
  Streak plate rank, 1st inoculation 24 h: 3* (3 = 16-30 cfu)
  Streak plate rank, 1st inoculation 72 h: 1* (1 = 1-5 Colony Forming Unit (cfu))
[1]; 100 ppm
  Dilution plate count, 3rd inoculation 72 h: <10 cfu/mL
  Streak plate rank, 3rd inoculation 24 h: 1 (1 = 1-5 Colony Forming Unit (cfu))
  Streak plate rank, 2nd inoculation 72 h: 0
[1]; 100 ppm, inoculum added was 5%
  Streak plate rank, 1st inoculation 24 h: 4* (4 = 31-45 cfu)
  Streak plate rank, 1st inoculation 72 h: 1* (1 = 1-5 Colony Forming Unit (cfu))
[2]; 25 ppm
  Dilution plate count, 3rd inoculation 72 h: 8.3 × 10^6 cfu/mL
  Streak plate rank, 3rd inoculation 24 h: 5c
  Streak plate rank, 2nd inoculation 72 h: 5c
  Streak plate rank, 1st inoculation 24 h: 5c
  Streak plate rank, 1st inoculation 72 h: 5c
[2]; 50 ppm
  Dilution plate count, 3rd inoculation 72 h: 6.0 × 10^6 cfu/mL
  Streak plate rank, 3rd inoculation 24 h: 5c
  Streak plate rank, 2nd inoculation 72 h: 5c
  Streak plate rank, 1st inoculation 24 h: 5c
  Streak plate rank, 1st inoculation 72 h: 5c
[2]; 100 ppm
  Dilution plate count, 3rd inoculation 72 h: 5.6 × 10^6 cfu/mL
  Streak plate rank, 3rd inoculation 24 h: 5c
  Streak plate rank, 2nd inoculation 72 h: 5c
  Streak plate rank, 1st inoculation 24 h: 5c
  Streak plate rank, 1st inoculation 72 h: 5c

## O=c1ccc2ccccc2o1 [Coumarin]
[1]; 500 ppm
  Dilution plate count, 3rd inoculation 72 h: 1.1 × 10^2 cfu/mL
  Streak plate rank, 3rd inoculation 24 h: 4 (4 = 31-45 cfu)
  Streak plate rank, 2nd inoculation 72 h: 2 (2 = 6-15 cfu)
[1]; 500 ppm, inoculum 2%
  Streak plate rank, 1st inoculation 24 h: 3 (3 = 16-30 cfu)
  Streak plate rank, 1st inoculation 72 h: 3 (3 = 16-30 cfu)
[2]; 500 ppm
  Dilution plate count, 3rd inoculation 72 h: 3.5 × 10^6 cfu/mL
  Streak plate rank, 3rd inoculation 24 h: 5c
  Streak plate rank, 2nd inoculation 72 h: 5c
  Streak plate rank, 1st inoculation 24 h: 5c
  Streak plate rank, 1st inoculation 72 h: 5c
[2]; used individually, Table 1
  bactericidal activity (in words): no bactericidal activity

## CCCCCCN(CCCCCC)C(=N)N.I [N,N-dihexylguanidine HI]
[1]; in combination with BIT and BBIT, Tables 4 and 6
  effect of guanidine on fungicidal activity of 4-isothiazolin-3-ones (in words): not achieved
[2]; in combination with BIT and BBIT, Tables 3 and 5
  effect of guanidine on bactericidal activity of 4-isothiazolin-3-ones (in words): not achieved
